Measurements as given in US20250170156A1, “TOLL-LIKE RECEPTOR LIGANDS” (INIMMUNE CORPORATION, priority 2018, published 2025).

Experiments:
[1] = Stability of aqueous formulations by reverse-phase-HPLC; format: physicochemical
Description: Formulation. The salted compound was accurately weighed into depyrogenated glass vials, and the required volume of aqueous vehicle added to attain the desired concentration. Vials were placed in a sonication bath (sonication bath temperature≤45° C.) to assist solubility and reduce particle size to achieve sterile filtration without significant loss of compound. Once the solution appeared homogeneous, the particle size was periodically monitored by dynamic light scattering until the solution turned clear and the particle size was <200 mn, or the particle size no longer reduced with continued sonication. The formulation was filtered through a 0.22p PVDF membrane filter into a depyrogenated glass vial and the resulting solution quantitated by RP-HPLC.
Aqueous formulations of compounds 1, 2, 3, 4, 5 and 6 were aliquoted into small depyrogenated vials for stability evaluation at temperatures of 2°-8° C., 25° C., and 40° C. This mirrors ICH stability temperature guidelines, but humidity was not controlled. A vial was pulled for each time point/temperature and analyzed by reverse-phase-HPLC (FIGS. 9-14) according to the following schedule starting from 2 weeks to up to 12 months.

primary hPBMCs [2] = assay: Induction of RANTES from primary hPBMCs (ELISA); details: Homo sapiens
[3] = system: influenza virus antigen A/Victoria/210/2009-H3N2; assay: Vaccine adjuvant study, murine influenza virus vaccination model; format: in vivo, BALB/c mice; details: intramuscular, 0.1, 0.01 or 0.001 μg with 0.2 μg antigen, 14 days after single immunization, 2% glycine
Description: Vaccine adjuvant study. Compounds 2, 4, 5 and 7 were evaluated as vaccine adjuvant in a murine influenza virus vaccination model. 7-9 week old BALB/c mice (10 mice per group) were injected intramuscularly in a hind limb with the influenza virus antigen A/Victoria/210/2009-H3N2 (0.2 μg/mouse) with or without 0.1, 0.01 or 0.001 μg of compound 2, 4, 5 or 7 (formulated in 2% glycine). Fourteen days after a single immunization, animals were bled via the submandibular vein and serum was collected to assay for A/Victoria specific antibodies by ELISA assay (FIG. 7).

hMM6 cells = assay: Induction of MIP-1β cytokine from hMM6 cells (ELISA); format: cell-based; details: Homo sapiens, 18 hours
Description: Induction of […] cytokine from hMM6 cells. The compounds were next tested in the established MM6 potency assay measuring MIP-1β cytokine production as an output measure of compound potency. Human monocytic cell line, Mono-Mac-6 (hMM6) was obtained from DSMZ (Brunswick, Germany). […] Treatments started at a 100 µM concentration proceeded with a 16-point, 5-fold dilution series. Supernatants were harvested and analyzed for production of MIP-1β via ELISA (R&D systems, catalog #DY271).

hTLR4 = target: T1, hTLR4 (Homo sapiens, UniProt O00206+Q9Y6Y9); assay: HEK hTLR4 NF-κB driven SEAP reporter assay (hTLR4 activation); format: cell-based; details: 18 hours
T1 construct: expressed in transfected cells; host or cells: HEK cells expressing hTLR4 and an NF-κB driven SEAP reporter
Description: hTLR4 activation. HEK hTLR4-expressing cells were treated with 100 μM concentration of test compound followed by a 5-fold dilution series. HEK hTLR4-expressing cells also contained an NF-κB driven SEAP reporter and were stimulated with the indicated concentration (FIG. 1A-1C) of the test compound for 18 hours followed by assessment of the cellular supernatant for SEAP by a Quantikine SEAP assay (InvivoGen). The SEAP assay was used to look at secretion of the NF-κB driven alkaline-phosphatase reporter gene in response to TLR4 activation by the compounds and results are interpreted both in terms of potency of the compounds to induce SEAP activation (i.e. potency where a lower EC50 indicates higher potency) and efficacy for receptor activation (i.e. maximal SEAP induction).

mRAW264.7 cells = assay: Induction of MIP-1β cytokine from mRAW264.7 cells (ELISA); format: cell-based; details: Mus musculus, 18 hours, read-out: mRaw MIP-1β EC50
Description: Induction of MIP-1β cytokine from mRAW264.7 cells. […] Treatments started at 20 μM concentration with a 5-fold serial dilution until 3.2768E-09 μM. Supernatants were harvested and analyzed for production of MIP-1β via ELISA (R& D Systems-cat #DY451).

primary hPBMCs [4] = assay: Induction of MIP-1β from primary hPBMCs (ELISA); details: Homo sapiens

T1 sequence (O00206 24-839): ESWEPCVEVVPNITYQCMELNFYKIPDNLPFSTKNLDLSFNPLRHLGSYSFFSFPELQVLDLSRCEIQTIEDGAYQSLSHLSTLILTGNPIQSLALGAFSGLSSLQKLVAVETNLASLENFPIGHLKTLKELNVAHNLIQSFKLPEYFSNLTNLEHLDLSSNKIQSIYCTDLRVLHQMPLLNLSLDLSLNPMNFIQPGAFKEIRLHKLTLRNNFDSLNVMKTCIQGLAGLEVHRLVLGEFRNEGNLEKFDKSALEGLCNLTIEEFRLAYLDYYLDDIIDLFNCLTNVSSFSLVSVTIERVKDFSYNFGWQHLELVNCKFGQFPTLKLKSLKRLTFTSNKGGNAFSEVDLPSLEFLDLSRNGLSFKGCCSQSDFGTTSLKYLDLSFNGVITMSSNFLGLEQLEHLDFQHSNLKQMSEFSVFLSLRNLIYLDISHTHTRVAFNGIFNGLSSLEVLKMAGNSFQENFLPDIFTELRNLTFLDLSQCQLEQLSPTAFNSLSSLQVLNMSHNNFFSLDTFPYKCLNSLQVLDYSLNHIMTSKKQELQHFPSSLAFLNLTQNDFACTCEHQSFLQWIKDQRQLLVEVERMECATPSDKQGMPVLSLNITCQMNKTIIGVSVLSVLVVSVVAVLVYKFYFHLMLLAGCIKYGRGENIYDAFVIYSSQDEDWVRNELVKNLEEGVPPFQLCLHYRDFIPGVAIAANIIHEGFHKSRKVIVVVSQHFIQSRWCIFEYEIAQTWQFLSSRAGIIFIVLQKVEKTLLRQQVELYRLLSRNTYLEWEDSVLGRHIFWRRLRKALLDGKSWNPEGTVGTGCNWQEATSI
T1 sequence (Q9Y6Y9 17-160 limits assumed): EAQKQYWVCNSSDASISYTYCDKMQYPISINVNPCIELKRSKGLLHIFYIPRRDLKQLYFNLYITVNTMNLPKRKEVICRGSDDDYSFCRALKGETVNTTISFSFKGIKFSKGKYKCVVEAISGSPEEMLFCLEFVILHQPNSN

## CCCCCCCCCCC[C@H](CC(=O)NCCO[C@@H]1OC(CO)[C@@H](OS(=O)(=O)O)[C@H](NC(=O)C[C@@H](CCCCCCCCCCC)OC(=O)CCCCCCCCC)C1NC(=O)C[C@@H](CCCCCCCCCCC)OC(=O)CCCCCCCCC)OC(=O)CCCCCCCCC (stereo partly drawn) [Compound 2, 2-[(R)-3-decanoyloxytetradecanoylamino]ethyl 2,3-di-[(R)-3-decanoyloxytetradecanoylamino]-2,3-dideoxy-4-O-sulfoxy-β-D-allopyranoside]
[1]; 25° C., formulated in 2% glycine (FIG. 10A)
  time with no degradation: ≥ 12 months
[1]; after 12 months at 40° C., formulated in 2% glycerol (FIG. 10B)
  degradation: less than 10%
Primary hPBMCs [2]; read-out: hPBMCs EC50 RANTES, Table 3a, Average of Donors 10, 5, 2
  EC50: 0.243 nM
Primary hPBMCs [2]; read-out: hPBMCs EC50 RANTES, Table 3a, Donor 2
  EC50: 0.38 nM
Primary hPBMCs [2]; read-out: hPBMCs EC50 RANTES, Table 3a, Donor 5
  EC50: 0.285 nM
Primary hPBMCs [2]; read-out: hPBMCs EC50 RANTES, Table 3a, Donor 10
  EC50: 0.0642 nM
Primary hPBMCs [2]; read-out: hPBMCs EC50 RANTES, Table 4b, Average of Donors 22, 5
  EC50: 0.423 nM
Primary hPBMCs [2]; read-out: hPBMCs EC50 RANTES, Table 4b, Donor 5
  EC50: 0.238 nM
Primary hPBMCs [2]; read-out: hPBMCs EC50 RANTES, Table 4b, Donor 22
  EC50: 0.609 nM
[3]
  adjuvant effect on flu-specific IgG2a antibody titers compared to antigen alone: dose dependent adjuvant effect
hMM6 cells
  EC50: 5.89 nM
hTLR4; Table 1a
  EC50: 64 nM
hTLR4; Table 1b
  EC50: 41 nM
mRAW264.7 cells
  EC50: 0.0176 nM
Primary hPBMCs [4]; read-out: hPBMCs EC50 MIP-1β, Table 3a, Average of Donors 10, 5, 2
  EC50: 0.0963 nM
Primary hPBMCs [4]; read-out: hPBMCs EC50 MIP-1β, Table 3a, Donor 2
  EC50: 0.0755 nM
Primary hPBMCs [4]; read-out: hPBMCs EC50 MIP-1β, Table 3a, Donor 5
  EC50: 0.166 nM
Primary hPBMCs [4]; read-out: hPBMCs EC50 MIP-1β, Table 3a, Donor 10
  EC50: 0.0475 nM
Primary hPBMCs [4]; read-out: hPBMCs EC50 MIP-1β, Table 4b, Average of Donors 22, 5
  EC50: 0.453 nM
Primary hPBMCs [4]; read-out: hPBMCs EC50 MIP-1β, Table 4b, Donor 5
  EC50: 0.119 nM
Primary hPBMCs [4]; read-out: hPBMCs EC50 MIP-1β, Table 4b, Donor 22
  EC50: 0.786 nM
